Measurements published in patent publication US20140357688A1, “METHOD FOR INHIBITING EZH2 EXPRESSION IN BREAST CANCER CELLS” (Yung Shin Pharm. Ind. Co., Ltd., priority 2013, published 2014).
Peptide text beside a SMILES is read from it. * marks the point of attachment. Cbz = O=C(OCc1ccccc1)*

Legend:
Assay type in all cases: cell-based, human
[1] = test system: EZH2; assay: Western blot of EZH2 protein expression in MDA-MB-468 cells; settings: for effect of inhibitor on YC-1-induced EZH2 inhibition: inhibitor pretreatment, then 3 μM YC-1 for 6 h
Procedure: Cells were harvested and performed with western blotting analysis. […] The levels of protein expression were quantitated and shown under blots. (C) Cells were transfected with EZH2 shRNA for 0, 1, 2, 3, and 4 days and collected for determination of cell viability (left) and protein expression (right). (D)(E) After 4 days of EZH2 knockdown, cells were incubated with 3 μM YC-1 for 4 h and detected cell viability (D) and protein contents (E). (F) Tumor specimens were isolated and protein was extracted for western blot analysis.
Cells were lysed in PBS containing proteinase inhibitor and phosphatase inhibitors and sonication. Protein concentration was measured using the Bio-Rad protein assay kit (Bio-Rad Laboratories, Hercules, Calif., USA). Lysate protein was separated by electrophoresis of SDS-PAGE and transferred to Immobilon P membrane (EMD Millipore). The membranes were incubated with appropriate primary antibodies and horseradish peroxidase-conjugated secondary antibodies (EMD Millipore). The signaling was visualized using Chemiluminescence substrate kit (EMD Millipore) and collected by the Luminesence image analyzer, LAS4000 (Fuji Photo Film Co., Tokyo, Japan). The band intensities were analyzed and quantified by the Multi Gauge software (Fuji Photo Film).

[2] = test system: EZH2; assay: EZH2 ubiquitination assay; settings: inhibitor pretreatment, then 3 μM YC-1
Procedure: (A) Cells were pretreated with cyclohexamide (30 μM) for 1 h and followed by induction with vehicle (DMSO) or YC-1 (3 μM) for indicated time. Cells were harvested for detection of protein expression. (B)(C) Cells were incubated with 3 μM YC-1 for 6 h in the presence of vehicle, 3 μM MG-132 or 30 μM NH4Cl. Cells were harvested for detection of protein expression (B) or cell viability assay (C). The levels of protein expression were quantitated and shown under blots. (D) After treatment of 3 μM YC-1 for indicated time, cells were harvested and lysed for immunoprecipitation and western blot analysis described in Materials and Methods.
Cells were lysed with MLB buffer (25 mM HEPES, pH 7.5, 150 mM NaCl, 1% Igepal CA-630, 10 mM MgCl2, 1 mM EDTA, 2% glycerol, 1 mM Na3VO4, 1 mM NaF, 1 mM PMSF, 10 μg/ml of leupeptin, aprotinin, and pepstatin A). After sonication, cell lysates were centrifugated at 12,000×g for 10 min at 4° C. Supernatants were incubated with anti-EZH2 antibody (BD Biosciences) and protein A Sepharose beads (GE Health Care) overnight at 4° C. After washing with MLB buffer, precipitated proteins were boiled in 1× Laemmli sample buffer and then separated with SDS-PAGE. The ubiquitination levels of EZH2 were recognized by using anti-Ubiquitn monoclonal antibody.

[3] = test system: MDA-MB-468; assay: MTT cell viability assay; settings: for effect of inhibitor on YC-1-induced inhibition of cell viability: inhibitor pretreatment, then 3 μM YC-1 for 6 h
Procedure: (A) Cells were treated with indicated concentration of YC-1 for 6, 24, and 48 h. Cell viability was determined by MTT method. (B) MDA-MB-468 cells were treated with 3 μM YC-1 for 0, 6, and 12 h, and then stained with fluorescence diacetate (FDA) and propidium iodide (PI). Cell morphology was assessed by fluorescence microscopy with magnification ×20 (upper 3 rows) or ×40 (lowest row). (C) MDA-MB-468 cells were treated with 3 μM YC-1 for 24 h, cells were lysed and subjected to western blot analysis described in Materials and Methods. β-actin is a loading control. Blots were representative of results from three independent experiments. (D) Cells were treated with vehicle (DMSO, as control) or 3 μM YC-1 for 6 h. The cell cycles were analyzed by flow cytometry. (E) Cells were treated with indicated concentration of YC-1 and then performed with clonogenic assay.
Human breast cancer cells, MDA-MB-468, MDA-MB-157, MDA-MB-231, MDA-MB-453, and Hs578T, and immortalized mammary epithelial cell lines, 184A1 and MCF-10A, were obtained from American Type Culture Collection (Manassas, Va., USA). MDA-MB-468, MDA-MB-157, MDA-MB-231, and MDA-MB-453 were cultured in DMEM/F12 medium supplemented with 10% FBS, 100 U/ml penicillin, and 100 μg/ml streptomycin. Hs578T was cultured in RPMI 1640 medium containing 10% FBS, 2 mM L-glutamine, 100 U/ml penicillin, and 100 μg/ml streptomycin. 184A1 and MCF-10A were cultured in DMEM/F12 medium supplemented with 5% horse serum, 0.5 μg/ml hydrocortisone, 10 μg/ml insulin, 20 ng/ml epidermal growth factor, 0.1 μg/ml cholera enterotoxin, 2 mM L-glutamine, 100 U/ml penicillin, and 100 μg/ml streptomycin. All cells were maintained in a humidified incubator containing 5% CO2. For hypoxia treatment, cells were incubated in a chamber flushed with 1% 02, 5% CO2, and 94% N2 at 37° C.
Cell viability was measured by 3-(4,5-Dimethyl-2-thiazolyl)2,5-diphenyl-2H-tetrazolium bromide (MTT) assay.

[4] = test system: c-Cbl; assay: Western blot of c-Cbl phosphorylation and expression; settings: pretreatment 1 h, then 3 μM YC-1 for 6 h
Procedure: (A) c-Cbl knockdown MDA-MB-468 cells were treated with 3 μM YC-1 for 4 h. Cell were harvested for detection of protein expression. (B) Cells were treated with 3 μM YC-1 for indicated time. Cells were collected and c-Cbl phosphorylation was detected. […] (D) Cells were pretreated with MG-132 and followed by 3 μM YC-1 induction for indicated time. Cells were harvested and lysed for immunoprecipitation assay. The association between c-Cbl and EZH2 were determined by western blotting analysis and probed with anti-EZH2 or anti-c-Cbl antibody. Membranes were stripped and reprobed with anti-c-Cbl or anti-EZH2 antibody to check the input. […] Then cells were collected and lysate protein was subjected for the detection of the c-Cbl-EZH2 complexes. Cells were lysed in PBS containing proteinase inhibitor and phosphatase inhibitors and sonication. Protein concentration was measured using the Bio-Rad protein assay kit (Bio-Rad Laboratories, Hercules, Calif., USA). Lysate protein was separated by electrophoresis of SDS-PAGE and transferred to Immobilon P membrane (EMD Millipore). The membranes were incubated with appropriate primary antibodies and horseradish peroxidase-conjugated secondary antibodies (EMD Millipore). The signaling was visualized using Chemiluminescence substrate kit (EMD Millipore) and collected by the Luminesence image analyzer, LAS4000 (Fuji Photo Film Co., Tokyo, Japan). The band intensities were analyzed and quantified by the Multi Gauge software (Fuji Photo Film).

[5] = test system: EZH2-c-Cbl-ERK; assay: Co-immunoprecipitation of c-Cbl and EZH2; settings: PD98059 10 μM with MG-132, then 2 h 3 μM YC-1
Procedure: (A) c-Cbl knockdown MDA-MB-468 cells were treated with 3 μM YC-1 for 4 h. Cell were harvested for detection of protein expression. (B) Cells were treated with 3 μM YC-1 for indicated time. Cells were collected and c-Cbl phosphorylation was detected. (C) Cells were pretreated with MG-132 (3 μM) or NH4Cl (30 μM) for 1 h followed by 3 μM YC-1 induction for 6 h. (D) Cells were pretreated with MG-132 and followed by 3 μM YC-1 induction for indicated time. Cells were harvested and lysed for immunoprecipitation assay. The association between c-Cbl and EZH2 were determined by western blotting analysis and probed with anti-EZH2 or anti-c-Cbl antibody. Membranes were stripped and reprobed with anti-c-Cbl or anti-EZH2 antibody to check the input. (E) Cells were preincubated with or without PD98059 (10 μM) in the presence of MG-132 for 1 h prior to 2 h-treatment of 3 μM YC-1. Then cells were collected and lysate protein was subjected for the detection of the c-Cbl-EZH2 complexes.
Cells were lysed with RIPA buffer (50 mM Tris-C1, pH 7.5, 1% Igepal CA-630, 150 mM NaCl, 1 mM EDTA, 1 mM Na3VO4, 1 mM NaF, 1 mM PMSF, 10 μg/ml of leupeptin, aprotinin, and pepstatin A) for 30 min at 4° C. One milligram of cell lysate was incubated with anti-EZH2 or anti-c-Cbl antibody and protein A-Sepharose beads, then gently rotated at 4° C. overnight. […]

SMILES | effect of inhibitor on YC-1-induced EZH2 inhibition [1] | effect of inhibitor on YC-1-induced EZH2 ubiquitination [2] | effect of inhibitor on YC-1-induced inhibition of cell viability [3] | other results
COc1cc2ncnc(Nc3cccc(Cl)c3)c2cc1OC [AG1478] | not affected | not |  | 
CNC(=O)c1cc(Oc2ccc(NC(=O)Nc3ccc(Cl)c(C(F)(F)F)c3)cc2)ccn1 [Bay-43-9006] | attenuated | significantly suppressed | attenuated | 
Nc1nccc2c1ncn2[C@@H]1C=C(CO)[C@@H](O)[C@H]1O [DZNep, 3-deazaneplanocin A] |  |  |  | EZH2 inhibition ([1]; DZNep 3, 10, 30 μM, 24 h, ten folds of concentration higher than YC-1): failed to inhibit EZH2; activation of apoptosis / cell viability ([3]; DZNep, 24 h, ten folds of concentration higher than YC-1): failed to inhibit EZH2 and activate apoptosis
COC(=O)[C@@]1(OC)C[C@H]2O[C@]1(C)n1c3ccccc3c3c4c(c5c6ccccc6n2c5c31)C(=O)N(C)C4 [KT5823] | failed to have effects |  | failed to have effects | 
CC(C)C[C@@H](C=O)NC(=O)[C@H](CC(C)C)NC(=O)[C@H](CC(C)C)NC(=O)OCc1ccccc1 [MG-132] (Cbz-Leu-Leu-Leu-aldehyde) | significantly prevented EZH2 degradation |  | reversed the YC-1-induced inhibition of cell viability | effect of inhibitor on YC-1-induced inhibition of c-Cbl [4]: could be reversed
Cl.N [NH4Cl, reference compound] | not |  |  | effect of inhibitor on YC-1-induced inhibition of c-Cbl [4]: not
O=c1onc2n1-c1cc(Br)ccc1OC2 [NS2028] | failed to have effects |  | failed to have effects | 
O=c1onc2cnc3ccccc3n12 [ODQ] | failed to have effects |  | failed to have effects | 
COc1cccc(-c2cc(=O)c3ccccc3o2)c1N [PD98059] | almost completely abolished | could be blocked | almost completely abolished | effect of inhibitor on EZH2-c-Cbl-ERK complex [5]: could be disrupted
COc1cc2ncnc(Nc3ccc(Oc4ccccc4)cc3)c2cc1OC [SrcI] | attenuated | significantly suppressed | attenuated | 
CC(C)=CCC/C(C)=C/CC/C(C)=C/CSc1ccccc1C(=O)O [farnyesyl thiosalicylic acid] | had no effect |  |  | 
O=c1c(-c2ccc(O)cc2)coc2cc(O)cc(O)c12 [genistein] | attenuated | significantly suppressed | attenuated | 
CCCC[C@@H](C)/C=C(C)/C=C(\C)C(=O)NC1=C[C@@](O)(/C=C/C=C/C=C/C(=O)NC2=C(O)CCC2=O)[C@@H]2O[C@@H]2C1=O [manumycin A] | failed to influent |  |  | 
CC[C@H](CO)Nc1nc(NCc2ccccc2)c2ncn(C(C)C)c2n1 [roscovitine] | failed to modulate |  | failed to modulate | 
